Laboratory results taken from article PMC12368478, “Targeting Ubiquitin‐Specific Protease 7 with Novel 5‐Amino‐Pyrazole Inhibitors: Design, Synthesis, and Biological Evaluation” (Chemmedchem, 2025).
Where “and” joins values, the source holds several entries; their conditions need not be identical. Identical values can stand only once.

Key:
[1] = system: MDA‐MB‐231 breast adenocarcinoma; experiment: MTT assay, MDA‐MB‐231; assay type: cell-based; conditions: MDA‐MB‐231, 10 μM, 48 h
Procedure: (§1) To evaluate the cytotoxicity of the novel USP‐7 inhibitors, compounds 1a–d were preliminary screened at a fixed concentration of 10 μM against eight different cancer cell lines (namely, MCF7 breast adenocarcinoma, SKOV‐3 ovarian adenocarcinoma, Hep‐G2 hepatocellular carcinoma, SK‐Mel28 cutaneous melanoma, MDA‐MB‐231 breast adenocarcinoma, SK‐BR3 breast adenocarcinoma, HeLa cervix epithelioid carcinoma, and A549 lung adenocarcinoma) as well as nonmutated human embryonic fibroblasts (GM‐6114). Cisplatinum (Cis‐Pt) was used as the reference compound.
(§2) To perform the MTT assay, SK‐BR3 (breast adenocarcinoma, Biologic Bank and Cell Factory, IRCCS Policlinico San Martino, Genoa, Italy), MCF‐7 (breast adenocarcinoma, Biologic Bank and Cell Factory, IRCCS Policlinico San Martino, Genoa, Italy), SK‐Mel28 (skin melanoma, Biologic Bank and Cell Factory, IRCCS Policlinico San Martino, Genoa, Italy), Hep‐G2 (hepatocellular carcinoma, ATCC, Manassas, VA), SKOV‐3 (ovarian adenocarcinoma, ATCC, Manassas, VA), MDA‐MB‐231 (breast adenocarcinoma, Biologic Bank and Cell Factory, IRCCS Policlinico San Martino, Genoa, Italy), HeLa (cervical adenocarcinoma, Biologic Bank and Cell Factory, IRCCS Policlinico San Martino, Genoa, Italy), A549 (lung adenocarcinoma, ATCC, Manassas, VA), and GM‐6114 (normal human embryonic fibroblast, ATCC, Manassas, VA) cell lines were cultured in Dulbecco's modified eagle medium (DMEM added with 10% Fetal bovine serum, 2 mM Glutamine, and 1% pen‐strep) and incubated in a humidified environment at 37 °C with 5% CO2. Reagents were acquired from EuroClone (Milan, Italy). All chemical compounds were dissolved in DMSO to give a 10 mM stock solution. Then, after an intermediate dilution in growth medium, they were added to the cultured cells at a final working concentration of 10 μM and incubated for 48 h. At the end of the incubation, 30 μL of MTT (3‐(4,5‐dimethyl‐2‐thiazolyl)‐2,5‐diphenyl‐2H‐tetrazolium bromide) at a concentration of 2 mg mL^−1 in phosphate buffered saline (PBS) were added into each well and further incubated for 4 h. Finally, the supernatants were removed and 100 μL well of DMSO were added to each well to dissolve the Formazan precipitates. After 20 min, plates were read at 570 nm. Results are expressed as the percentage of the control samples where cells have been treated with the same amount of DMSO but without any chemical compound. The assay was repeated three times, and a single compound was tested six times. Means and standard deviations were calculated.

[2] = system: Hep‐G2 hepatocellular carcinoma; experiment: MTT assay, Hep‐G2; assay type: cell-based; conditions: Hep‐G2, 10 μM, 48 h
Procedure: as §1, §2

[3] = system: MCF7 breast adenocarcinoma; experiment: MTT assay, MCF7; assay type: cell-based; conditions: MCF7, 10 μM, 48 h
Procedure: as §1, §2

[4] = system: SKOV‐3 ovarian adenocarcinoma; experiment: MTT assay, SKOV‐3; assay type: cell-based; conditions: SKOV‐3, 10 μM, 48 h
Procedure: as §1, §2

[5] = system: SK‐Mel28 cutaneous melanoma; experiment: MTT assay, SK‐Mel28; assay type: cell-based; conditions: SK‐Mel28, 10 μM, 48 h
Procedure: as §1, §2

A549 lung adenocarcinoma = experiment: MTT assay, A549; assay type: cell-based; conditions: A549, 10 μM, 48 h
Procedure: as §1, §2

[6] = system: HeLa cervix epithelioid carcinoma; experiment: MTT assay, HeLa; assay type: cell-based; conditions: 10 μM, 48 h
Procedure: as §1, §2

[7] = system: SK‐BR3 breast adenocarcinoma; experiment: MTT assay, SK‐BR3; assay type: cell-based; conditions: SK‐BR3, 10 μM, 48 h
Procedure: as §1, §2

[8] = system: nonmutated human embryonic fibroblasts (GM‐6114); experiment: MTT assay, GM‐6114; assay type: cell-based; conditions: GM‐6114 healthy fibroblasts, 10 μM, 48 h
Procedure: as §1, §2

recombinant USP‐7 = target: T1, recombinant USP‐7 (Homo sapiens, UniProt Q93009); experiment: USP‐7 fluorescence-based enzymatic assay (Ub‐AMC); assay type: biochemical; conditions: recombinant USP‐7, Ubiquitin–AMC substrate, 30 min preincubation; average of three separate experiments
T1 construct: purchased BPS Bioscience 79,256
Procedure: The inhibition efficiency of compounds 1a–d and 2a–d on the USP‐7 enzyme was assessed using a fluorescence‐based enzymatic assay, employing Ubiquitin–AMC as a substrate. In this assay, USP‐7 hydrolyzes Ubiquitin–AMC, leading to an increase in fluorescence signal. To evaluate the inhibitory potential, recombinant USP‐7 was preincubated with varying concentrations of the test compounds before adding the substrate, and fluorescence intensity was subsequently measured. […] Additionally, the elongation of the side chain in compounds 2a–d completely abolished the activity.
In vitro enzymatic inhibition was measured using the USP‐7 inhibitor screening assay kit (catalog #79,256, BPS Bioscience, San Diego, CA, USA) according to the manufacturer's instructions. Briefly, compound stock solutions were prepared in DMSO and diluted tenfold to obtain the working solutions. Then, these solutions and the vehicle control were added to the black 384‐wells plate, together with the USP‐7 enzyme, previously diluted as required by the manufacturer, and incubated at rt for 30 min. Then, the Ub‐AMC substrate was diluted 400‐fold and added to the plate, followed by incubation at rt for 30 min. The final DMSO amount in each well was 1%.

[9] = Parallel artificial membrane permeability assay (PAMPA); assay type: in vitro ADME; conditions: for LogPe ± SD: PBS pH 7.4, 5 h
Procedure: The assay was prepared as follows: 300 μL of PBS pH 7.4 (5% DMSO) was placed in the acceptor wells. A phosphatidylcholine (PC) solution was obtained by dissolving and vortexing PC at 1% w/v in dodecane and solubilized using an ultrasound bath until a clear solution was obtained. […] of this solution was deposited on the membrane portion of the donor well. 150 μL of each molecule, at 100–250 μM final concentration (5% DMSO), was pipetted in the […]. The acceptor (Multiscreen transport Receiver Plate, 96‐well, polystyrene, Millipore) and donor plates (Multiscreen Filter Plates, IP, […], clear, hydrophobic PVDF, Millipore) were subsequently assembled and incubated for 5 h under gentle orbital shaking. The experiment was conducted in duplicate. Lucifer yellow was used as a negative control to establish the integrity of the membrane, quantifying its concentration in both acceptor and donor solutions using fluorescence. […] The results are expressed as means ± SEM of at least three independent experiments.

[10] = system: neuroblastoma HTLA‐230 cells; design: method as in PMID 36780313; conditions: cited from earlier work
USP‐7 = system: USP‐7; design: method as in PMID 37298148; conditions: in vitro and in‐cell assays, neuroblastoma‐related cells; cited from earlier work

T1 sequence (Q93009 whole entry): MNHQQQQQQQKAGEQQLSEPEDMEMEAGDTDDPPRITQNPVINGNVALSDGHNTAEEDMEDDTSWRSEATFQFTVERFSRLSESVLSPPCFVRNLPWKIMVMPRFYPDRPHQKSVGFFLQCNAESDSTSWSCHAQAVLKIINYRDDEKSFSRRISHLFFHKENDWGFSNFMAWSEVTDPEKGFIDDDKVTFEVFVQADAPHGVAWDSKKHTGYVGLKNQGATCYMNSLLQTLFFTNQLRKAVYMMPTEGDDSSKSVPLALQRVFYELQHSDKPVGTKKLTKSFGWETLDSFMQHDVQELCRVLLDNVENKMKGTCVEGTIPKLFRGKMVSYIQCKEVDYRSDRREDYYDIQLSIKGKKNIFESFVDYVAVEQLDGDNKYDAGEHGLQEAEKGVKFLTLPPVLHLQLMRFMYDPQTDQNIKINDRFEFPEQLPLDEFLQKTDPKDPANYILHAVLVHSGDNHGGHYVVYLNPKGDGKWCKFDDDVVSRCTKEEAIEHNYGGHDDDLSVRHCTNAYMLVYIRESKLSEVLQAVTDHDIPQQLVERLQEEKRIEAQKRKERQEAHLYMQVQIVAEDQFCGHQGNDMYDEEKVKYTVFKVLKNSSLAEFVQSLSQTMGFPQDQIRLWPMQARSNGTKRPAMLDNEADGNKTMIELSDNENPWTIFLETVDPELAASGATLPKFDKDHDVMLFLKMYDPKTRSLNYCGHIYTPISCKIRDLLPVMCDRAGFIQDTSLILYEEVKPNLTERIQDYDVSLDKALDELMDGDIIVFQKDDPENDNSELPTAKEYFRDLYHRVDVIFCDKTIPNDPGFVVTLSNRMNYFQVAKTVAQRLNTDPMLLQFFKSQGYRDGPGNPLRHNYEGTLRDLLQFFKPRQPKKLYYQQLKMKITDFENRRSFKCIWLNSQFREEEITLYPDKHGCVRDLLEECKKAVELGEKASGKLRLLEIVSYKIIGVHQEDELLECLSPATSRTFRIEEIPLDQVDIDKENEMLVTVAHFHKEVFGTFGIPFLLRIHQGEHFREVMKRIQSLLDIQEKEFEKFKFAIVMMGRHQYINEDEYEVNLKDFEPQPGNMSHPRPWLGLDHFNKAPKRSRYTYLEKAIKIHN

Row | Compound | IC50 (recombinant USP‐7) [µM] | LogPe ± SD ([9]; 100 μM) | LogPe ± SD ([9]; 250 μM) | membrane permeability (in words) ([9]; 100 and 250 μM) | Cell growth percent [%] [1] [%] | Cell growth percent [%] [2] [%] | Cell growth percent [%] [3] [%] | Cell growth percent [%] [4] [%] | Cell growth percent [%] [5] [%] | Cell growth percent [%] (A549 lung adenocarcinoma) | Cell growth percent [%] [6] [%] | Cell growth percent [%] [7] [%] | Cell growth percent [%] [8] [%] | inhibition of migratory ability [10] | inhibition of USP‐7 enzymatic activity and expression levels (USP‐7)
1 | N.N.[Cl][Pt][Cl] [Cis ‐Pt, Cisplatinum, reference compound] | – | – | – | – | 86.07 | 38.07 | 72.74 | 26.83 | 44.40 | 59.09% | 29.33 | 70.59 | – | – | –
2 | CCOC(=O)c1cnn(CC(C)OC(=O)Nc2cccc(C(F)(F)F)c2)c1N (stereo not drawn) [Compound 1d, Ethyl 5‐Amino‐1‐(2‐(((3‐(Trifluoromethyl)Phenyl)Carbamoyl)Oxy)Propyl)‐1H‐Pyrazole‐4‐Carboxylate] | 1.31 ± 0.21 | −4.54 ± 0.02 | −4.81 ± 0.00 | highly permeable | 119.94 | 100.73 | 113.85 | 99.40 | 90.77 | 90.69% | 106.40 | 95.04 | 96.18 | – | –
3 | CCOC(=O)c1cnn(CC(C)O)c1NC(=O)Nc1cccc(F)c1 (stereo not drawn) [STIRUR‐41, reference compound] | 2.77 ± 0.56 | – | – | – | 64.32 | 111.36 | 110.71 | 100.50 | 94.26 | 38.88% | 99.83 | 97.17 | 38.50 | significant inhibition | inhibit both the enzymatic activity of USP‐7 and its expression levels

Now from value to molecule, other results behind:

Row | IC50 (recombinant USP‐7) [µM] | LogPe ± SD ([9]; 100 μM) | LogPe ± SD ([9]; 250 μM) | membrane permeability (in words) ([9]; 100 and 250 μM) | Compound | Cell growth percent [%] [1] [%] | Cell growth percent [%] [2] [%] | Cell growth percent [%] [3] [%] | Cell growth percent [%] [4] [%] | Cell growth percent [%] [5] [%] | Cell growth percent [%] (A549 lung adenocarcinoma) | Cell growth percent [%] [6] [%] | Cell growth percent [%] [7] [%] | Cell growth percent [%] [8] [%] | inhibition of migratory ability [10] | inhibition of USP‐7 enzymatic activity and expression levels (USP‐7)
4 | 2.19 ± 0.49 | – | – | – | CCOC(=O)c1cnn(CC(C)OC(=O)Nc2ccccc2F)c1N (stereo not drawn) [Compound 1a, Ethyl 5‐Amino‐1‐(2‐(((2‐Fluorophenyl)Carbamoyl)Oxy)Propyl)‐1H‐Pyrazole‐4‐Carboxylate] | 106.29 | 97.50 | 109.46 | 102.26 | 95.28 | 104.43% | 105.06 | 98.76 | 105.96 | – | –
5 | 1.48 ± 0.31 | – | – | – | CCOC(=O)c1cnn(CC(C)OC(=O)Nc2cccc(F)c2)c1N (stereo not drawn) [Compound 1b, Ethyl 5‐Amino‐1‐(2‐(((3‐Fluorophenyl)Carbamoyl)Oxy)Propyl)‐1H‐Pyrazole‐4‐Carboxylate] | 73.53 | 95.70 | 104.08 | 98.78 | 115.09 | 39% and 39.06% | 95.63 | 135.91 | 68.07 | – | –
6 | 1.8 ± 0.39 | – | – | – | CCOC(=O)c1cnn(CC(C)OC(=O)Nc2ccc(F)cc2)c1N (stereo not drawn) [Compound 1c, Ethyl 5‐Amino‐1‐(2‐(((4‐Fluorophenyl)Carbamoyl)Oxy)Propyl)‐1H‐Pyrazole‐4‐Carboxylate] | 103.39 | 100.11 | 108.02 | 99.94 | 88.22 | 114.96% | 108.28 | 101.55 | 112.09 | – | –
